Test results published in publication PMC4974736, “Corynebacterium glutamicum possesses β-N-acetylglucosaminidase” (BMC Microbiology, 2016).

Key:
Assay type in all cases: biochemical
[1] = molecular target: T1, NagZ (Bacillus subtilis, UniProt P40406); experiment: p-nitrophenol release at […] nm; conditions: 100 mM phosphate pH 7.0; cell extract of overexpressing C. glutamicum; turnover only
T1 construct: codon-optimized synthetic gene in pEKEx3, overexpressed in C. glutamicum; cell extract, not purified
T1 sequence (P40406 17-642): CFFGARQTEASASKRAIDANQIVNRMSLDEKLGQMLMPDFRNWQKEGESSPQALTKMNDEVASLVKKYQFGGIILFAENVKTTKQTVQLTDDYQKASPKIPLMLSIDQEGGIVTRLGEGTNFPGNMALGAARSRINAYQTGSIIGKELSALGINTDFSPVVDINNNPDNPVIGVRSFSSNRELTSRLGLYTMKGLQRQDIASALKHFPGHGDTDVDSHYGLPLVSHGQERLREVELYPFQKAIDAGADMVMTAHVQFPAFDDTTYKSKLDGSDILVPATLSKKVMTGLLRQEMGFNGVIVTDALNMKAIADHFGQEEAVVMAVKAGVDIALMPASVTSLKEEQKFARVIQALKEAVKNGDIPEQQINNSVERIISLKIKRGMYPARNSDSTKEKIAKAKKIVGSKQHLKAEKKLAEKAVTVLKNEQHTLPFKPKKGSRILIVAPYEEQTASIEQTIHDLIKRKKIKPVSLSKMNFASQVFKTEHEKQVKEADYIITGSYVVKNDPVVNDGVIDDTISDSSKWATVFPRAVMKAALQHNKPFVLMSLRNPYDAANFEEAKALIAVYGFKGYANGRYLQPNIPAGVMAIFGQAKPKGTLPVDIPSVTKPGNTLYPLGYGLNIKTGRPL

[2] = molecular target: T2, NagA2 fused to the C. glutamicum PhoD signal peptide (PhoD-nagA2) (Corynebacterium glutamicum, UniProt Q8NLT5); experiment: p-nitrophenol release at […] nm, Eadie-Hofstee plot; conditions: 100 mM phosphate pH 7.0; culture supernatant of overexpressing C. glutamicum
T2 construct: gene Cgl2852; native signal peptide replaced by TAT signal peptide of PhoD (cg2485), expected to be cleaved on export; pEKEx3 in C. glutamicum; culture supernatant, not purified

[3] = molecular target: T3, ChiB (Serratia marcescens, UniProt P11797); experiment: p-nitrophenol release at […] nm; conditions: 100 mM phosphate pH 7.0; cell extract and supernatant of overexpressing C. glutamicum; turnover only
T3 construct: native form or fused to TAT signal peptide of Cg0955 (SP0955); pEKEx3 in C. glutamicum; cell extract and supernatant, not purified
T3 sequence (P11797 1-499 limits assumed): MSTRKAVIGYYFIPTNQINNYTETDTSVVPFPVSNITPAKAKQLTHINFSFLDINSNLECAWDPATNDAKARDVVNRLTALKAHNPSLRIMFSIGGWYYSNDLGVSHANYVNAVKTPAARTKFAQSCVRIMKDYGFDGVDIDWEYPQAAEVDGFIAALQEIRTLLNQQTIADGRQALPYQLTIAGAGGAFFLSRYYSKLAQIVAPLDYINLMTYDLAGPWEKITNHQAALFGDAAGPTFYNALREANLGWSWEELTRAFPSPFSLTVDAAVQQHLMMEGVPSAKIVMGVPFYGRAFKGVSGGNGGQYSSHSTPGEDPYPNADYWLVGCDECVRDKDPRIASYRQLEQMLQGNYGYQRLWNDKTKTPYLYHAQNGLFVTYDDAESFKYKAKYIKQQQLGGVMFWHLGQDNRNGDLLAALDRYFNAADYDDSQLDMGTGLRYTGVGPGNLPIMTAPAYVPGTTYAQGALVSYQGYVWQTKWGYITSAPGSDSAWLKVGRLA

[4] = molecular target: T4, NagA2 lacking its own signal peptide (SP-less-nagA2) (Corynebacterium glutamicum, UniProt Q8NLT5); experiment: p-nitrophenol release at […] nm, Eadie-Hofstee plot; conditions: 100 mM phosphate pH 7.0; cell extract fraction of overexpressing C. glutamicum
T4 construct: gene Cgl2852; predicted native signal peptide removed; overexpressed from pEKEx3 in C. glutamicum; cell extract, not purified
T4 sequence (Q8NLT5 entry or part of it): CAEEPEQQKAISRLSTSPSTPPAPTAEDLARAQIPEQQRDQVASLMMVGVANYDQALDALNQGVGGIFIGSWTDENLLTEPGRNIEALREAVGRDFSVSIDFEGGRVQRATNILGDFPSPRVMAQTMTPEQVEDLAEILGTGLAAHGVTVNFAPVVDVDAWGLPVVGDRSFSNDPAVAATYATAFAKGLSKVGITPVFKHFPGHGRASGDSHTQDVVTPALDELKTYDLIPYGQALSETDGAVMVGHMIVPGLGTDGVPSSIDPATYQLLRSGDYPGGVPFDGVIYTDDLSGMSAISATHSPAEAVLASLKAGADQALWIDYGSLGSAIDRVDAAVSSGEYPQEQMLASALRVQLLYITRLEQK

T2 sequence (Q8NLT5 entry or part of it): as above

Compound	p-nitrophenol release at 405 nm [1]	Km [2] [µM]	p-nitrophenol release at 405 nm [3]	Km [4] [µM]
CC(=O)N[C@H]1[C@H](Oc2ccc([N+](=O)[O-])cc2)O[C@H](CO)[C@@H](O)[C@@H]1O [4-Nitrophenyl N-acetyl-β-D-glucosaminide]	NagZ produced in C. glutamicum led to an intracellular specific activity of N-acetylglucosaminidase			
CC(=O)N[C@H]1[C@H](Oc2ccc([N+](=O)[O-])cc2)O[C@H](CO)[C@@H](O[C@@H]2O[C@H](CO)[C@@H](O)[C@H](O)[C@H]2NC(C)=O)[C@@H]1O [4-nitrophenyl N,N’-diacetyl-β-D-chitobioside]		270 ± 66	chitinase activity was quantified by measuring the hydrolysis of p-nitrophenol from 4-Nitrophenyl N,N’-diacetyl-β-D-chitobioside	266 ± 37
